The values that follow come from patent US12459951B2, “Compounds that interact with RAS superfamily proteins for treatment of cancers, inflammatory diseases, rasopathies, and fibrotic disease” (SHY Therapeutics, LLC, priority 2022, dated 2025).

SMILES strings stand for the structures.

In assay [1] the test system is Smad2/Smad3 phosphorylation. Description: Phospho-Smad2/3 Inhibition Assay (western blot), Panc-1. Type of assay: cell-based, human. Conditions: at 10 μM, Panc-1 pancreatic cancer cell line; starred symbols = activation. In short, it runs like this: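 Western blotting of lysates (15-50 μg protein) read phosphorylation of Smad2 Ser465/467 and Smad3 Ser423/425. Before lysis, Panc-1 cells got 1 h of 10 ng/ml TGF-b1 following 3 h compound exposure at 37° C (10 μM final, or serial dilutions for IC50, 0.3% DMSO) after overnight 0.5% FBS starvation.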
In general terms: Immunoblotting shows a protein as a band on a membrane.

For another assay, the system named is TNF-alpha. Kind of assay: TNF-alpha Quantification Assay (ELISA), LPS-stimulated RAW 264.7. Format: cell-based. Conditions: Mus musculus, RAW264.7; at 10 μM; read-out: TNFα: % inh. (In general: An ELISA detects its analyte on a solid surface through an enzyme-linked reagent.)
In assay [2] the test system is MiaPaca-2 (expressing KRAS G12C mutant). Description: Proliferation Assay (Cell Viability Assay). Format: cell-based. The settings on record: Homo sapiens, MIA PaCa-2; read-out: Proliferation in MiaPaca-2: IC50. Put shortly: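 After 2–4 days' exposure at 37 °C, 5% CO2 to a single 10 μM final concentration or a dilution series (IC50), percent proliferation inhibition was derived from CellTiter 96 Aqueous One viability readings. The medium contained 0.3% DMSO and 10% FBS. KRAS G12C MiaPaca-2 cells were plated at 2000–5000/well the day before.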

For `Cc1c(-c2ccn(C)n2)cn2nc(-c3nccn3C)nc(Nc3cc(-c4cccnc4)ccn3)c12` [Compound 250, N-([3,4′-Bipyridin]-2′-yl)-5-methyl-2-(1-methyl-1H-imidazol-2-yl)-6-(1-methyl-1H-pyrazol-3-yl)pyrrolo[2,1-f][1,2,4]triazin-4-amine], the “% inh of Smad2/3 phosphorylation in Panc-1” value (from here on “% inh”) in assay [1] is recorded as “C* (C* = 46-75% activation)”. In addition, the inhibition at 10 µM in the assay with TNF-alpha was in the range of 50 to 74%. In addition, the IC50 in assay [2] was under 150 nM.
The corresponding values for `Cc1c(-c2ccn(C(C)C)n2)cn2nc(-c3nccn3C)nc(Nc3cnccn3)c12` [Compound 62, 6-(1-Isopropyl-1H-pyrazol-3-yl)-5-methyl-2-(1-methyl-1H-imidazol-2-yl)-N-(pyrazin-2-yl)pyrrolo[2,1-f][1,2,4]triazin-4-amine] are “A* (A* = 1-25% activation)”, 1 to 24% and under 150 nM.
On to `COc1cccc(-c2cn3nc(-c4nccn4C)nc(N[C@@H]4CC[C@@H](OC)C4)c3c2-c2ccccn2)c1F` (racemic) [Compound 46, rac 6-(2-Fluoro-3-methoxyphenyl)-N-((1R,3R)-3-methoxycyclopentyl)-2-(1-methyl-1H-imidazol-2-yl)-5-(pyridin-2-yl)pyrrolo[2,1-f][1,2,4]triazin-4-amine], for which the “% inh” value in assay [1] was 0 (0 = 0% inhibition). The inhibition at 10 µM with TNF-alpha lay in the range of 75 to 100%. In addition, in assay [2], the IC50 was over 1000 nM.
Regarding `Cc1c(-c2ccn(C)n2)cn2nc(-c3nccn3C)nc(Nc3cc(C(F)(F)F)[nH]n3)c12` [Compound 259, 5-Methyl-2-(1-methyl-1H-imidazol-2-yl)-6-(1-methyl-1H-pyrazol-3-yl)-N-(5-(trifluoromethyl)-1H-pyrazol-3-yl)pyrrolo[2,1-f][1,2,4]triazin-4-amine], in assay [1], the “% inh” value is given as “A (A = 1-25% inhibition)”. Besides, the inhibition at 10 µM with TNF-alpha amounted to 0%. In addition, in assay [2], the IC50 was over 1000 nM.
With `Cc1c(-c2ccn(C(C)C)n2)cn2nc(-c3nccn3C)nc(Nc3nnco3)c12` [Compound 59, N-(6-(1-Isopropyl-1H-pyrazol-3-yl)-5-methyl-2-(1-methyl-1H-imidazol-2-yl)pyrrolo[2,1-f][1,2,4]triazin-4-yl)-1,3,4-oxadiazol-2-amine], in assay [1], the “% inh” value is “D (D = 76-100% inhibition)”. The inhibition at 10 µM in the assay on TNF-alpha lay within 1 to 24%. Further, the IC50 in assay [2] was 150 to 500 nM.
For `Cc1c(-c2ccn(C(C)C)n2)cn2nc(-c3nccn3C)nc(Nc3ccn(C)n3)c12` [Compound 61, 6-(1-Isopropyl-1H-pyrazol-3-yl)-5-methyl-2-(1-methyl-1H-imidazol-2-yl)-N-(1-methyl-1H-pyrazol-3-yl)pyrrolo[2,1-f][1,2,4]triazin-4-amine], the “% inh” value in assay [1] is “B (B = 26-45% inhibition)”. Moreover, in the assay on TNF-alpha, the inhibition at 10 µM lay within 1 to 24%. Further, the IC50 in assay [2] lay within 510 to 1000 nM.
Consider `Cc1c(-c2ccn(C(C)C)n2)cn2nc(-c3nccn3C)nc(Nc3cc(C4CC4)no3)c12` [Compound 69, 3-Cyclopropyl-N-(6-(1-isopropyl-1H-pyrazol-3-yl)-5-methyl-2-(1-methyl-1H-imidazol-2-yl)pyrrolo[2,1-f][1,2,4]triazin-4-yl)isoxazol-5-amine], for which the “% inh” value in assay [1] is “A (A = 1-25% inhibition)”. In addition, in the assay on TNF-alpha, the inhibition at 10 µM fell in the range of 1 to 24%. The IC50 in assay [2] was over 1000 nM.
